In one assay the test system is plasma cholesterol. Put plainly: Plasma cholesterol in cholesterol-cholic acid fed rats. It counts as in vivo. To be noted: Rattus norvegicus, oral gavage; for change in vivo at 100 mg/kg / change in vivo at 20 mg/kg / change in vivo at 60 mg/kg: 96 h, four days, read-out: % Decrease in Plasma Cholesterol. As for the experimental part:
In addition, representative compounds were studied in vivo in cholesterol-cholic acid fed rats to determine the percent decrease of cholesterol in their plasma. This study involves rats which are, prior to testing, trained for one week to eat over a four hour time period each day. Upon initiation of the experiment, the rats diet is supplemented with 1.0 percent cholesterol and 0.25 percent cholic acid. The rats are dosed with the test compound by oral gavage just prior to adjust following the four hour feeding period. This is repeated for four days. On the fifth day, the rats are sacrificed and the total plasma cholesterol content is determined. The percent decrease in elevated plasma cholesterol levels is calculated in comparison with […].

Assay [1] deals with acyl-coenzyme A: cholesterol acyltransferase. The experiment in a line: Inhibition of ACAT / intracellular cholesterol esterification in vitro (procedure of Ross et al.). It counts as cell-based.

Like-named read-outs stand apart in the source and are kept apart here.

For orientation: ED50 means the midpoint of the dose-response relation. A lower ED50 goes with an effect at a small dose. For orientation: % Inhibition means the share of the control response that was lost under treatment. The term IC50 denotes the concentration that gives 50% inhibition. On to `CCCCCCCN(Cc1ccc(CCCCC)cc1)C(Nc1ccc(OC)cc1OC)=C1C(=O)OC(C)(C)OC1=O` [Compound 14, 5-[[(2,4-Dimethoxyphenyl)amino][heptyl[(4-pentylphenyl)methyl]amino]methylene]-2,2-dimethyl-1,3-dioxane-4,6-dione], for which the change in vivo at 100 mg/kg with plasma cholesterol is -85%. The same compound returned an ED50 in the assay on plasma cholesterol (fifty percent reduction of plasma cholesterol) of 16 mg/kg. The “% Inhibition” value in assay [1] (25 μM) was determined as 99%. Besides, the IC50 in assay [1] (read-out: IC50) came to 840 nM.
For the compound `CCCCCCCN(Cc1ccc(OCCC(C)C)cc1)C(Nc1ccc(OC)cc1OC)=C1C(=O)OC(C)(C)OC1=O` [Compound 6, 5-[[(2,4-Dimethoxyphenyl)amino][heptyl[[4-[(3-methylbutyl)oxy]phenyl]methyl]amino]-methylene]-2,2-dimethyl-1,3-dioxane-4,6-dione], the change in vivo at 100 mg/kg with plasma cholesterol is -42%. Also, the “% Inhibition” value in assay [1] (25 μM) was 99%. The IC50 in assay [1] (read-out: IC50) was determined as 1500 nM.
Turning to `CCCCCc1ccc(CN(C(Nc2ccc(N(C)C)cc2C)=C2C(=O)OC(C)(C)OC2=O)C(C)CCCCC)cc1` (stereo not drawn) [Compound 54, 5-[[[4-(Dimethylamino)-2-methylphenyl]amino][(1-methylhexyl)[(4-pentylphenyl)methyl]-amino]methylene]-2,2-dimethyl-1,3-dioxane-4,6-dione], the change in vivo at 20 mg/kg in the assay with plasma cholesterol was -77%. Moreover, the “% Inhibition” value in assay [1] (25 μM) is recorded as 98%. Further, the IC50 in assay [1] (read-out: IC50) was 680 nM.
Consider `CCCCCCCN(Cc1ccc(OCCC(C)C)cc1)C(Nc1ccc(N(C)C)cc1)=C1C(=O)OC(C)(C)OC1=O` [Compound 22, 5-[[[4-(Dimethylamino)phenyl]amino][heptyl[[[4-(3-methylbutyl)oxy]phenyl]methyl]amino]-methylene]-2,2-dimethyl-1,3-dioxane4,6-dione], for which the change in vivo at 60 mg/kg with plasma cholesterol was -46%. The “% Inhibition” value in assay [1] (25 μM) was found to be 93%. In addition, the IC50 in assay [1] (read-out: IC50) stood at 370 nM.
For the compound `COc1ccc(NC(=C2C(=O)OC(C)(C)OC2=O)N(Cc2ccc(C(C)(C)C)cc2)C(C)CCCC(C)C)c(OC)c1` (stereo not drawn) [Compound 29, 5-[[(2,4-Dimethoxyphenyl)amino][[[4-(1,1-dimethylethyl)phenyl]methyl](1,5-dimethylhexyl)-amino]methylene]-2,2-dimethyl-1,3-dioxane-4,6-dione], in the assay on plasma cholesterol, the change in vivo at 100 mg/kg was -84%. For the same compound, the “% Inhibition” value in assay [1] (25 μM) came out at 99%. Besides, the IC50 in assay [1] (read-out: IC50) was 230 nM.
`CCCCc1ccc(CN(C(Nc2ccc(N(C)C)cc2)=C2C(=O)OC(C)(C)OC2=O)C(C)CCCC(C)(C)O)cc1` (stereo not drawn) [Compound 45, 5-[[[(4-Butylphenyl)methyl](5-hydroxy-1,5-dimethylhexyl)amino][[4-(dimethylamino)phenyl]-amino]-methylene]-2,2-dimethyl-1,3-dioxane-4,6-dione]: in the assay with plasma cholesterol, the change in vivo at 20 mg/kg was -29%. Also, in assay [1] (25 μM), the “% Inhibition” value worked out at 90%. The 50% inhibitory concentration (IC50) in assay [1] (read-out: IC50) amounted to 5200 nM.
With `CCCCCCCN(Cc1ccc(CC(C)C)cc1)C(Nc1ccc(OC)cc1OC)=C1C(=O)OC(C)(C)OC1=O` [Compound 31, 5-[[(2,4,-Dimethoxyphenyl)amino][heptyl[[4-(2-methylpropyl)phenyl]methyl]amino]methylene]-2,2-dimethyl-1,3-dioxane-4,6-dione], in the assay with plasma cholesterol, the change in vivo at 60 mg/kg is -71%. Also, the “% Inhibition” value in assay [1] (25 μM) is on record as 97%. Besides, in assay [1] (read-out: IC50), the IC50 was 910 nM.
For `CCCCCCCN(Cc1ccc(CCC(C)C)cc1)C(Nc1ccc(OC)cc1OC)=C1C(=O)OC(C)(C)OC1=O` [Compound 55, 5-[[(2,4-Dimethoxyphenyl)amino][heptyl[[4-(3-methylbutyl)phenyl]methyl]amino]methylene]2,2-dimethyl-1,3-dioxane-4,6-dione], the change in vivo at 20 mg/kg in the assay on plasma cholesterol was -40%. The “% Inhibition” value in assay [1] (25 μM) was 97%. For the same compound, in assay [1] (read-out: IC50), the IC50 worked out at 3000 nM.
`CCCCCC(C)N(Cc1ccc(CC(C)C)cc1)C(Nc1cccc(OCc2ccccc2)c1)=C1C(=O)OC(C)(C)OC1=O` (stereo not drawn) [Compound 34]: in the assay on plasma cholesterol, the change in vivo at 20 mg/kg was -32%. For the same compound, the “% Inhibition” value in assay [1] (25 μM) is 98%. Besides, in assay [1] (read-out: IC50), the 50% inhibitory concentration (IC50) is 1100 nM.
With `CC(C)Cc1ccc(CN(C(Nc2ccc(N(C)C)cc2)=C2C(=O)OC(C)(C)OC2=O)C(C)CN2CCOCC2)cc1` (stereo not drawn) [Compound 51], the “% Inhibition” value in assay [1] (25 μM) came to 66%.
For `CCCCCC(C)N(Cc1ccc(OCC(C)C)cc1)C(Nc1ccc(OC)cc1OC)=C1C(=O)OC(C)(C)OC1=O` (stereo not drawn) [Compound 58, 5-[[(2,4-Dimethoxyphenyl)amino][(1-methylhexyl)[[4-(2-methylpropoxy)phenyl]methyl]-amino]methylene]-2,2-dimethyl-1,3-dioxane-4,6-dione], the “% Inhibition” value in assay [1] (25 μM) is 99%. Also, in assay [1] (read-out: IC50), the IC50 stood at 550 nM.
Take `CC1(C)OC(=O)C(=C(Nc2cccnc2)Nc2cc(C(C)(C)C)c(O)c(C(C)(C)C)c2)C(=O)O1` [Compound 82]: the “% Inhibition” value in assay [1] (50 μM) is reported as 94%.
Consider `CCCCCCCN(Cc1ccc(C(C)(C)C)cc1)C(Nc1ccc(F)cc1)=C1C(=O)OC(C)(C)OC1=O` [Compound 67], for which the “% Inhibition” value in assay [1] (50 μM) came to 89%. Further, the IC50 in assay [1] (read-out: IC50) is 4500 nM.
With `CCCCCCCCCCN(Cc1ccc(C(C)(C)C)cc1)C(Nc1ccc(OC)cc1OC)=C1C(=O)OC(C)(C)OC1=O` [Compound 65], in assay [1] (25 μM), the “% Inhibition” value was determined as 98%. Besides, the 50% inhibitory concentration (IC50) in assay [1] (read-out: IC50) worked out at 2300 nM.
For `CC(C)CCc1ccc(CN(C(Nc2ccc(N(C)C)cc2)=C2C(=O)OC(C)(C)OC2=O)C(CC(C)C)CC(C)C)cc1` [Compound 73, 5-[[[4-(Dimethylamino)phenyl]amino][[[4-(3-methylbutyl)phenyl]methyl][3-methyl-1-(2-methylpropyl)butyl]amino]methylene]-2,2-dimethyl-1,3-dioxane-4,6-dione], in that order: 97% and 1300 nM.
In the case of `CCCCCCCN(Cc1ccc(CCCCCC)cc1)C(Nc1ccc(F)cc1F)=C1C(=O)OC(C)(C)OC1=O` [Compound 18, 5-[[(2,4-Difluorophenyl)amino][[(4-hexylphenyl)methyl]heptylamino]methylene]-2,2-dimethyl-1,3-dioxane-4,6-dione], in assay [1] (50 μM), the “% Inhibition” value was found to be 60%.
Regarding `CCCCCCCN(Cc1ccc(C(C)(C)C)cc1)C(Nc1ccc(C(F)(F)F)cc1)=C1C(=O)OC(C)(C)OC1=O` [Compound 30, 5-[[[[4-(1,1-Dimethylethyl)phenyl]methyl]heptylamino][[4-(trifluoromethyl)phenyl]amino]-methylene]-2,2-dimethyl-1,3-dioxane-4,6-dione], the “% Inhibition” value in assay [1] (25 μM) was determined as 42%.
Regarding `CCCCCC(C)N(Cc1ccc(C(C)(C)C)cc1)C(Nc1cc(OC)c(OC)c(OC)c1)=C1C(=O)OC(C)(C)OC1=O` (stereo not drawn) [Compound 20], in assay [1] (25 μM), the “% Inhibition” value came to 96%. Further, the IC50 in assay [1] (read-out: IC50) was determined as 770 nM.
In assay [1], `COc1ccc(NC(=C2C(=O)OC(C)(C)OC2=O)N(Cc2ccc(CC(C)C)cc2)[C@@H](CO[Si](C)(C)C(C)(C)C)CC(C)C)c(OC)c1` [Compound 71] gave an IC50 of 530 nM. Moreover, the “% Inhibition” value in assay [1] (25 μM) was 97%.
As to `COc1ccc(NC(NCC2(c3ccccc3)CCCC2)=C2C(=O)OC(C)(C)OC2=O)c(OC)c1` [Compound 9, 5-[[(2,4-Dimethoxyphenyl)amino][[(1-phenylcyclopentyl)methyl]amino]methylene]-2,2-dimethyl-1,3-dioxane-4,6-dione], the “% Inhibition” value in assay [1] (25 μM) is listed as 98%. Further, the IC50 in assay [1] (read-out: IC50) is 5600 nM.
As for `COc1ccc(NC(=C2C(=O)OC(C)(C)OC2=O)N(Cc2ccc(CC(C)C)cc2)[C@@H](CO[Si](C)(C)C(C)(C)C)Cc2ccccc2)c(OC)c1` [Compound 11], the IC50 in assay [1] was 2800 nM. Moreover, in assay [1] (25 μM), the “% Inhibition” value stood at 98%.
Take `CCCCCC(C)N(Cc1ccc(CCC(C)C)cc1)C(Nc1ccc(N(C)C)cc1)=C1C(=O)OC(C)(C)OC1=O` (stereo not drawn) [Compound 57, 5-[[[4-(Dimethylamino)phenyl]amino][[[4-(3-methylbutyl)phenyl]methyl](1-methylhexyl)-amino]methylene]-2,2-dimethyl-1,3-dioxane-4,6-dione]: the “% Inhibition” value in assay [1] (25 μM) is on record as 96%. Also, the concentration for half-maximal inhibition (IC50) in assay [1] (read-out: IC50) was 410 nM.
In the case of `COc1ccc(NC(=C2C(=O)OC(C)(C)OC2=O)N(Cc2ccc(CC(C)C)cc2)[C@@H](CO)Cc2ccccc2)c(OC)c1` [Compound 12, (R)-5-[[(2,4-Dimethoxyphenyl)amino][[(1R)1-(hydroxymethyl)-2-phenylethyl][[4-(2-methyl-propyl)phenyl]methyl]amino]methylene]-2,2-dimethyl-1,3-dioxane-4.6-dione], the “% Inhibition” value in assay [1] (25 μM) amounted to 96%.
With `CCCCCC(C)N(Cc1ccc(CC(C)C)cc1)C(Nc1cc(C(C)(C)C)c(O)c(C(C)(C)C)c1)=C1C(=O)OC(C)(C)OC1=O` (stereo not drawn) [Compound 13], the “% Inhibition” value in assay [1] (25 μM) turned out to be 99%. Besides, the 50% inhibitory concentration (IC50) in assay [1] (read-out: IC50) worked out at 190 nM.
On to `CCCCCCCN(Cc1ccc(C(C)(C)C)cc1)C(Nc1cc(OC)c(OC)c(OC)c1)=C1C(=O)OC(C)(C)OC1=O` [Compound 69], for which, in assay [1] (25 μM), the “% Inhibition” value is on record as 98%. Also, the IC50 in assay [1] (read-out: IC50) was 2800 nM.
As for `COc1ccc(NC(=C2C(=O)OC(C)(C)OC2=O)N(Cc2ccc(CC(C)C)cc2)C(C)CN2CCOCC2)c(OC)c1` (stereo not drawn) [Compound 50, 5-[[(2,4-Dimethoxyphenyl)amino][[1-methyl-2-(4-morpholinyl)ethyl][[4-(2-methylpropyl)-phenyl]methyl]amino]methylene]-2,2-dimethyl-1,3-dioxane-4,6-dione], in assay [1] (25 μM), the “% Inhibition” value is on record as 74%.
For the compound `CCCCCC(C)N(Cc1ccc(CC(C)(C)C)cc1)C(Nc1ccc(C)cc1C)=C1C(=O)OC(C)(C)OC1=O` (stereo not drawn) [Compound 64], the “% Inhibition” value in assay [1] (25 μM) was 99%. Further, the IC50 in assay [1] (read-out: IC50) amounted to 490 nM.
On the same counts, the results for `CCCCCCCN(Cc1ccc(C(C)(C)C)cc1)C(Nc1ccc(OCCCCCC)cc1)=C1C(=O)OC(C)(C)OC1=O` [Compound 25, 5-[[[[4-(1,1-Dimethylethyl)phenyl]methyl]heptylamino][[4-(hexyloxy)phenyl]amino]methylene]2,2-dimethyl-3-dioxane-4,6-dione] are 94% and 500 nM.

For the origin of these results see patent US5399697A, “N,N',N'-trisubstituted-5-bisaminomethylene-1,3-dioxane-4,6-dione inhibitors of acyl-CoA:cholesterol-acyl transferase” (American Home Products Corporation, priority 1993, dated 1995).
